# ChEMBL document CHEMBL4382199, “Application of Virtual Screening to the Identification of New LpxC Inhibitor Chemotypes, Oxazolidinone and Isoxazoline” (J Med Chem, 2018)
# Activity calls are given as the source filed them. No cut-off for these calls is given here.
# Key:
# Klebsiella pneumoniae [1] = assay: Antimicrobial activity against Klebsiella pneumoniae ATCC 43816 after 20 hrs by CLSI protocol-based microdilution assay; format: functional; conditions: ATCC 43816, 20 h
# Pseudomonas aeruginosa [2] = assay: Antimicrobial activity against Pseudomonas aeruginosa ATCC 27853 after 20 hrs by CLSI protocol-based microdilution assay; format: functional; conditions: ATCC 27853, 20 h
# Escherichia coli = assay: Antimicrobial activity against Escherichia coli ATCC 25922 after 20 hrs by CLSI protocol-based microdilution assay; format: functional; conditions: ATCC 25922, 20 h
# [3] = biological target: T1, UDP-3-O-acyl-N-acetylglucosamine deacetylase (Pseudomonas aeruginosa (strain ATCC 15692 / PAO1 / 1C / PRS 101 / LMG12228), UniProt P47205); assay: Binding affinity to Pseudomonas aeruginosa PAO1 NB52019 LpxC after 60 to 420 secs by SPR method
# T1 sequence (P47205 whole entry): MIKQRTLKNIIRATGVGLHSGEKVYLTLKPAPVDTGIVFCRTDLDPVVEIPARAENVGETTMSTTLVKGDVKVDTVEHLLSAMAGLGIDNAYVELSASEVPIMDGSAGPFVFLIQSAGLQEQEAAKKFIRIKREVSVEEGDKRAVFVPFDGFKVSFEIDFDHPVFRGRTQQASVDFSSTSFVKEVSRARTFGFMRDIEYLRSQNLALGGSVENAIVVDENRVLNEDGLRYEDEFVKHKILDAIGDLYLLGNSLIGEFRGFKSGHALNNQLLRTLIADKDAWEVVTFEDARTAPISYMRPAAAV
# [4] = Lipophilicity, log D of the compound at pH 7.4; format: physicochemical; conditions: buffer
# Klebsiella pneumoniae [5] = assay: Inhibition of LpxC in Klebsiella pneumoniae ATCC 43816 assessed as antibacterial activity after 20 hrs in presence of rifampicin by CLSI protocol-based microdilution assay
# Klebsiella pneumoniae [6] = assay: Inhibition of LpxC in Klebsiella pneumoniae ATCC 43816 assessed as antibacterial activity after 20 hrs in presence of vancomycin by CLSI protocol-based microdilution assay
# Klebsiella pneumoniae [7] = assay: Inhibition of LpxC in Klebsiella pneumoniae ATCC 43816 assessed as potentiation factor by measuring ratio of MIC of compound alone to MIC of compound in presence of rifampicin after 20 hrs by CLSI protocol-based microdilution assay
# Klebsiella pneumoniae [8] = assay: Inhibition of LpxC in Klebsiella pneumoniae ATCC 43816 assessed as potentiation factor by measuring ratio of MIC of compound alone to MIC of compound in presence of vancomycin after 20 hrs by CLSI protocol-based microdilution assay
# [9] = Protein binding in mouse plasma; format: ADME, cell-free; conditions: read-out: PPB (converted)
# [10] = Protein binding in rat plasma; format: ADME, cell-free; conditions: read-out: PPB (converted)
# [11] = Protein binding in dog plasma; format: ADME, cell-free, Canis lupus familiaris; conditions: read-out: PPB (converted)
# [12] = Protein binding in human plasma; format: ADME, cell-free; conditions: read-out: PPB (converted)
# [13] = Solubility of the compound at pH 7.4; format: physicochemical; conditions: buffer
# [14] = Solubility of the compound at pH 9; format: physicochemical; conditions: buffer
# [15] = Clearance in mouse at 60 mg/kg, iv; format: ADME, organism-based; conditions: in vivo
# [16] = Volume of distribution at steady state in mouse at 60 mg/kg, iv; format: ADME, organism-based; conditions: in vivo, read-out: Vdss
# [17] = Half life in mouse at 60 mg/kg, iv; format: ADME, organism-based; conditions: in vivo
# [18] = Clearance in rat at 5 mg/kg, iv; format: ADME, organism-based; conditions: in vivo
# [19] = Volume of distribution at steady state in rat at 5 mg/kg, iv; format: ADME, organism-based; conditions: in vivo, read-out: Vdss
# [20] = Half life in rat at 5 mg/kg, iv; format: ADME, organism-based; conditions: in vivo
# [21] = Clearance in dog at 10 mg/kg, iv; format: ADME, organism-based, Canis lupus familiaris; conditions: in vivo
# [22] = Volume of distribution at steady state in dog at 10 mg/kg, iv; format: ADME, organism-based, Canis lupus familiaris; conditions: in vivo, read-out: Vdss
# [23] = Half life in dog at 10 mg/kg, iv; format: ADME, organism-based, Canis lupus familiaris; conditions: in vivo
# Pseudomonas aeruginosa [24] = assay: Antimicrobial activity against Pseudomonas aeruginosa infected in mouse model of neutropenic thigh infection assessed reduction in bacterial levels in thigh at 105 mg/kg/day, sc administered 2 hrs post infection every 6 hrs for 24 hrs; format: functional, organism-based
# Pseudomonas aeruginosa [25] = assay: Antimicrobial activity against Pseudomonas aeruginosa infected in mouse model of neutropenic thigh infection assessed reduction in bacterial levels in thigh at 160 mg/kg/day, sc administered 2 hrs post infection every 6 hrs for 24 hrs; format: functional, organism-based
# Klebsiella pneumoniae [26] = assay: Antibacterial activity against Klebsiella pneumoniae infected in mouse model of lung infection assessed as reduction in bacterial load in lung at 20 mg/kg, sc dosed every 6 hrs and measured after 48 hrs post first treatment; format: functional
# Klebsiella pneumoniae [27] = assay: Antibacterial activity against Klebsiella pneumoniae infected in mouse model of lung infection assessed as reduction in bacterial load in lung at 20 mg/kg, sc dosed every 6 hrs co-treated with 200 mg/kg vancomycin and measured after 48 hrs post first treatment (reference value: 4.5 log10CFU/g); format: functional
# Klebsiella pneumoniae [28] = assay: Antibacterial activity against Klebsiella pneumoniae infected in lung infection mouse model assessed as log reduction in bacterial load in lungs at 200 mg/kg, sc dosed every 6 hrs measured after 48 hrs post first treatment; format: functional, organism-based
# Klebsiella pneumoniae [29] = assay: Antibacterial activity against Klebsiella pneumoniae infected in mouse model of lung infection assessed as reduction in bacterial load in lung at 200 mg/kg, sc dosed every 6 hrs and measured after 48 hrs post first treatment; format: functional, organism-based
SMILES,MIC (Klebsiella pneumoniae [1]) [µg/mL],MIC (Pseudomonas aeruginosa [2]) [µg/mL],MIC (Escherichia coli) [µg/mL],Kd [3] [nM],logD [4],MIC (Klebsiella pneumoniae [5]) [µg/mL],MIC (Klebsiella pneumoniae [6]) [µg/mL],other results
CO[C@H]1/C=C/O[C@@]2(C)Oc3c(C)c(O)c4c(O)c(c(/C=N/N5CCN(C)CC5)c(O)c4c3C2=O)NC(=O)/C(C)=C\C=C\[C@H](C)[C@H](O)[C@@H](C)[C@@H](O)[C@@H](C)[C@H](OC(C)=O)[C@@H]1C [RIFAMPIN],32,–,–,–,–,–,–,–
C[C@@H](O)[C@H](NC(=O)c1ccc(C#Cc2ccc(CN3CCOCC3)cc2)cc1)C(=O)NO,0.5,2,0.125,–,–,–,–,–
CC#Cc1ccc(C2=NO[C@@H](C[C@](C)(C(=O)NO)S(C)(=O)=O)C2)cc1,8,0.5,1,0.44,1.4,0.25,2,fold change (FC) (Klebsiella pneumoniae [7]): 32; fold change (FC) (Klebsiella pneumoniae [8]): 4
CC(C)(O)[C@H]1C[C@H](C#Cc2ccc(N3C[C@H](C[C@](C)(C(=O)NO)S(C)(=O)=O)OC3=O)cc2)C1,1,1,0.5,0.2,1.6,0.5,1,fold change (FC) (Klebsiella pneumoniae [7]): 2; fold change (FC) (Klebsiella pneumoniae [8]): 1
C[C@@](C[C@H]1CN(c2ccc(C#CC3CC3)cc2)C(=O)O1)(C(=O)NO)S(C)(=O)=O,1,0.5,0.125,–,1.9,0.06,0.25,fraction unbound [9]: 0.13; fraction unbound [10]: 0.11; fraction unbound [11]: 0.14; fraction unbound [12]: 0.14; solubility [13]: 126 µg/mL; solubility [14]: > 20000 µg/mL; clearance [15]: 49 mL/min/kg; Vd [16]: 1.6 L/kg; half-life [17]: 330 min; clearance [18]: 24 mL/min/kg; Vd [19]: 1 L/kg; half-life [20]: 54 min; clearance [21]: 26 mL/min/kg; Vd [22]: 0.8 L/kg; half-life [23]: 42 min; Activity (Pseudomonas aeruginosa [24]): Active; Activity (Pseudomonas aeruginosa [25]): Active; Activity (Klebsiella pneumoniae [26]): 4.5 log10CFU/g; Activity (Klebsiella pneumoniae [27]): 2.5 log10CFU/g
C[C@@H](O)Cc1ccc(-c2ccc(N3C[C@H](C[C@](C)(C(=O)NO)S(C)(=O)=O)OC3=O)cc2)cc1,1,2,0.25,0.12,1.2,–,–,–
C[C@@](C[C@H]1CN(c2ccc(-c3ccccc3)cn2)C(=O)O1)(C(=O)NO)S(C)(=O)=O,32,2,2,0.12,1.8,–,–,–
CN[C@H](CC(C)C)C(=O)N[C@H]1C(=O)N[C@@H](CC(N)=O)C(=O)N[C@H]2C(=O)N[C@H]3C(=O)N[C@H](C(=O)N[C@H](C(=O)O)c4cc(O)cc(O)c4-c4cc3ccc4O)[C@H](O)c3ccc(c(Cl)c3)Oc3cc2cc(c3O[C@@H]2O[C@H](CO)[C@@H](O)[C@H](O)[C@H]2O[C@H]2C[C@](C)(N)[C@H](O)[C@H](C)O2)Oc2ccc(cc2Cl)[C@H]1O [VANCOMYCIN],> 128,–,–,–,–,–,–,Activity (Klebsiella pneumoniae [28]): inactive; Activity (Klebsiella pneumoniae [29]): inactive
CCCc1ccc(C2=NO[C@@H](C[C@](C)(C(=O)NO)S(C)(=O)=O)C2)cc1,16,1,4,0.2,1.7,–,–,–
C/C=C/c1ccc(N2C[C@H](C[C@](C)(C(=O)NO)S(C)(=O)=O)OC2=O)cc1,32,1,4,0.1,1.4,–,–,–
CC#Cc1ccc(N2C[C@H](C[C@](C)(C(=O)NO)S(C)(=O)=O)OC2=O)cc1,16,0.5,2,0.063,1.4,0.25,4,fold change (FC) (Klebsiella pneumoniae [7]): 64; fold change (FC) (Klebsiella pneumoniae [8]): 4
C[C@@](C[C@H]1CN(c2ccc(-c3ccccc3)cc2)C(=O)O1)(C(=O)NO)S(C)(=O)=O,4,1,0.25,0.026,2.3,–,–,–
C[C@@](C[C@H]1CC(c2ccc(Br)cc2)=NO1)(C(=O)NO)S(C)(=O)=O,> 64,4,32,2.6,1.2,–,–,–
C[C@@](C[C@H]1CC(c2ccc(C#CC3CC3)cc2)=NO1)(C(=O)NO)S(C)(=O)=O,0.5,1,0.125,0.17,2.2,0.03,0.125,fold change (FC) (Klebsiella pneumoniae [7]): 16; fold change (FC) (Klebsiella pneumoniae [8]): 4
C[C@@](C[C@H]1CN(c2ccc(C3CC3)cc2)C(=O)O1)(C(=O)NO)S(C)(=O)=O,> 64,2,32,0.12,1.5,–,–,–
C[C@@](C[C@H]1CN(c2ccc(Br)cc2)C(=O)O1)(C(=O)NO)S(C)(=O)=O,> 64,0.5,> 64,0.21,1,–,–,–
CCCc1ccc(N2C[C@H](C[C@](C)(C(=O)NO)S(C)(=O)=O)OC2=O)cc1,32,0.5,4,0.17,1.6,1,8,fold change (FC) (Klebsiella pneumoniae [7]): 32; fold change (FC) (Klebsiella pneumoniae [8]): 4
C/C=C/c1ccc(C2=NO[C@@H](C[C@](C)(C(=O)NO)S(C)(=O)=O)C2)cc1,16,1,2,0.3,2,–,–,–
